Entries after “also recorded” stand apart in the source; their conditions may differ. Where two headings read alike, the source gives them in different places.
Assays:
[1] = cited from earlier work
[2] = 2.5 mg/kg
[3] = cited from earlier work; remark: listed apart in the source
[4] = Toxicology study in rats at 1 mg/kg (neutropenia); assay type: in vivo; details: for neutropenia (FIG. 6), day 7 in particular: male and female rats
Text: References to amounts dosed in mg/kg for the dendrimeric compound are to the amounts of Cabazitaxel that may theoretically be released by the dendrimer.

[5] = system: MDA-MB-231 tumour xenografts
Protocol: Cabazitaxel was prepared fresh for each dosing day.
Tumour volumes were determined twice weekly and were expressed as mean tumour volume (±SEM).
The data represent the mean percent weight change from baseline (Day 1) for each group; bars SEM.

[6] = Single-dose toxicokinetic study, intravenous bolus, free (unconjugated) cabazitaxel in plasma; assay type: in vivo, Sprague Dawley Crl:CD (SD) rats; details: for Cmax free (unconjugated) Cabazitaxel: i.v. bolus; for % JEVTANA ® brand cabazitaxel dose: relative to JEVTANA 2.5 mg/kg
Protocol: A single-dose toxicokinetic study of SPL-9048 and SPL-9005 was carried out by intravenous bolus injection in rats with a 21-day observation period. The control, 0.9% sodium chloride, was prepared and dispensed on the day of dosing. SPL-9048 and SPL-9005 were prepared at appropriate concentrations to meet dose level requirements. The dosing formulations were prepared and dispensed on each day of dosing and were used within 3 hours of preparation. The required amount of test article was weighed out and dissolved in a suitable volume of normal saline with gentle swirling and the pH was recorded. Cabazitaxel (JEVTANA® brand cabazitaxel) was prepared at appropriate concentration to meet dose level requirements. […] This stock solution was further diluted with normal saline to produce the final dosing concentration within 30 minutes.
The animals used were male and female Sprague Dawley Crl:CD (SD) rats. The animals were 10 to 14 weeks old and weighed between 327 and 565 g for males and 212 and 316 g for females at initiation of dosing. Animals were acclimated to their designated housing for at least 4 days before the first day of dosing. Animals were assigned to groups by a stratified randomization scheme designed to achieve similar group mean body weights. Males and females were randomised separately. Animals in poor health or at extremes of body weight ranges were not assigned to groups. PMI Nutrition International Certified Rodent Chow No. 5CR4 was provided ad libitum throughout the study except during designated procedures. The same diet in meal form was also provided, as needed. Municipal tap water, after treatment by reverse osmosis and ultraviolet irradiation, was freely available to each animal via an automatic watering system, except during designated procedures. Water bottles were also provided, as required. Animal were socially housed for psychological/environmental enrichment and were provided with items such as a chewing object, except when interrupted by study procedures/activities. Veterinary care was available throughout the course of the study.
The test and control articles were administered to the appropriate animals at the amounts indicated in the table below via a single intravenous (slow bolus) injection to the tail vein.
The dose volume for each animal was based on the most recent body weight measurement. The animals were temporarily restrained for dose administration and were not sedated. The doses were given using a syringe with attached needle. The first day of dosing for each group was designated as Day 1. The comparator dosing formulation (JEVTANA® brand Cabazitaxel) and test articles were maintained between 15 and 30° C. during dosing.
Toxicokinetic parameters were estimated using Phoenix pharmacokinetic software. A non-compartmental approach consistent with the intravenous route of administration was used for parameter estimation.

[7] = system: CAPAN-1 tumour xenografts; assay: CAPAN-1 mouse xenograft pancreatic cancer model study; assay type: in vivo, Female NOD-SCID Interleukin-2 receptor gamma chain null mice; details: for Tumour Growth inhibition (%): Day 37, Gemcitabine 80 mg/kg i.p., ABRAXANE 40 mg/kg i.v., SPL9048 […] i.v.; for Tumour Growth inhibition (%) / anti-tumour efficacy (mean tumour volume, FIG. 7): dosing days 1, 8, 15; for anti-tumour efficacy (mean tumour volume, FIG. 7): study to day 107
Protocol: Gemcitabine and ABRAXANE® were obtained from the Peter MacCallum Cancer Centre pharmacy, and were dissolved in saline solution immediately prior to dosing.
Female NOD-SCID Interleukin-2 receptor gamma chain null mice (aged 9 weeks) were inoculated subcutaneously on the flank with 5×10^6 CAPAN-1 cells in PBS:Matrigel (1:1).
Tumour growth data was analysed in GraphPad Prism for ANOVA followed by Dunnett's post ad-hoc test.

[8] = system: progressive metastatic disease; assay: Phase 1 dose escalation study: treatment response and biomarkers; assay type: in vivo, human patients
Protocol: Biomarker, PK and other data were collected from patients enrolled in the study. Patients were dosed every 3 weeks, over 1 hour using an infusion pump. Patients all had progressive metastatic disease. The patient population was heavily pre-treated with a range of chemotherapeutic agents as described in the below table.

[9] = Stability in solution (precipitation); assay type: physicochemical; details: compared with SPL9049
[10] = system: DU145 tumour xenografts; assay: DU145 mouse xenograft prostate cancer model study; assay type: in vivo, Male SCID mice
Protocol: Cabazitaxel was prepared fresh for each dosing day. […] Dosing solutions at 4.5 and 5.5 mg/mL were prepared from this working stock immediately prior to injection.
Male SCID mice (age 7-8) weeks were inoculated subcutaneously in the flank with 3×10^6 DU145 cells in PBS:Matrigel (1:1). Mice were weighed and tumours measured 2-3 times weekly using electronic callipers. […] Treatment groups were saline, Cabazitaxel (9 and 11 mg/kg), SPL-9048 (9 mg/kg) and SPL-9005 (25 mg/kg). […] The experiment was ended on Day 126, or earlier if an ethical endpoint was met. Survival curves were analysed using the Mantel Cox log rank test.
Tumour volumes were determined 2-3 times weekly and are expressed as mean tumour volume (±SEM).
Graphs are shown for each group until fewer than 6 animals remained in each group.

[11] = Separate tolerability study in female SCID mice; assay type: in vivo; details: 25 mg/kg Cabazitaxel equivalent

CO[C@H]1C(=O)[C@]2(C)[C@@H](OC)C[C@H]3OC[C@@]3(OC(C)=O)[C@H]2[C@H](OC(=O)c2ccccc2)[C@]2(O)C[C@H](OC(=O)[C@H](O)[C@@H](NC(=O)OC(C)(C)C)c3ccccc3)C(C)=C1C2(C)C [Cabazitaxel]
patients with febrile neutropenia ([1]; 25-mg/m2 dose): 4%
patients with prolonged grade 4 neutropenia ([1]; 25-mg/m2 dose): 4%
AUC concentration ([1]; 25-mg/m^2 dose): 642±320 mcg/L per hour
Cmax ([1]; 25-mg/m^2 dose): 535 ± 305 ng/mL
dose eliminated within 2 weeks ([1]; in vivo): Approximately 80%
patients with diarrhea ([1]; in vivo): 56%
patients with fatigue ([1]; in vivo): 36%
patients with grade 1 hypersensitivity reactions (flushing, dizziness, chest tightness) ([1]; in vivo): 8%
patients with nausea ([1]; in vivo): 40%
patients with neurotoxicity ([1]; in vivo): 36%
patients with vomiting ([1]; in vivo): 16%
intermediate elimination phase, average t½ ([1]; triphasic model, plasma): 78 ± 36 min
prolonged terminal elimination phase, average t½ ([1]; triphasic model, plasma): 77.3 ± 45.5 h
rapid initial elimination phase, average terminal half-life t½ ([1]; triphasic model, plasma): 2.6 ± 1.4 min
test article related hematology changes ([2]; by Day 2 through Day 7, males and females): generally greater
mean Cmax ([3]; 25 mg/m2, 1-hour IV, n=67): 226 ng/mL
Tmax (end of infusion) ([3]; 25 mg/m2, 1-hour IV): 60 min
mean AUC ([3]; 25 mg/m2, 1-hour IV): 991 ng·h/mL
patients with Grade 3 or 4 febrile neutropenia ([3]; in vivo): 8%
patients with neutropenia (all grades) ([3]; in vivo): 94%
rebound after neutropenia at day 14 [4]: substantial rebound at day 14
neutropenia (FIG. 6), day 7 in particular [4]: dip in values
tumours reaching ethical tumour volume endpoint by day 98 ([5]; 9 mg/kg i.v. days 1, 8, 15): 9 of 10
Cabazitaxel measurability in plasma over time ([6]; 2.5 mg/kg): not measurable more than 24 hours after
AUC0-t free Cabazitaxel ([6]; 2.5 mg/kg drug eq., males): 679.99 ng·h/mL
Cmax free (unconjugated) Cabazitaxel ([6]; 2.5 mg/kg drug eq., males): 801.05 ng/mL
% JEVTANA ® brand cabazitaxel dose ([6]; 2.5 mg/kg drug eq., males): 100%
Cmax ([6]; Sprague Dawley Crl:CD (SD), rat, plasma, intravenous, 2.5 mg/kg): 801 ng/mL
Tmax ([6]; male, Sprague Dawley Crl:CD (SD), rat, plasma, intravenous, 2.5 mg/kg, males): 2 min

BHALys[Lys]32[α-DGA-Cabazitaxel]32†[ε-PEG˜2100]32‡ [SPL9048]
Tumour Growth inhibition (%) [7]: 107%
tumour growth inhibition compared with ABRAXANE ([7]; […] i.v. vs 40 mg/kg i.v.): more effectively than ABRAXANE®
anti-tumour efficacy (mean tumour volume, FIG. 7) [7]: complete regression of CAPAN-1 tumours for the duration of the study
toxicity overall [2]: Reduced toxicity
dose at which biomarker response occurs ([8]; FIGS. 8 and 9): ≥ 10 mg/m^2
CA-125 (FIG. 9) ([8]; ovarian cancer, after two doses at 15 mg/m^2): declining
Stable disease ([8]; patient: digital papillary adenocarcinoma (stage IV), 2 to 15 mg/m^2, 12 cycles): Stable disease > 33 weeks.
CA-125 decline ([8]; patient: ovarian (stage IV), 15 to 20 mg/m^2, 7 cycles, over 15 weeks): CA-125 declining (60%) from 652
CA-125 after decline ([8]; patient: ovarian (stage IV), from 652, over 15 weeks, after one cycle at 15 mg/m^2): to 255 kU/L (over 15 weeks) after
CA 19-9 decline ([8]; patient: pancreatic adenocarcinoma (stage IV), 20 mg/m^2, 3 cycles, after one cycle): CA 19-9 declining (28%) from 177
CA 19-9 after decline ([8]; patient: pancreatic adenocarcinoma (stage IV), 20 mg/m^2, from 177 baseline, after one cycle): baseline to 127 kU/L after one
CA 19-9 ([8]; patient: pancreatic adenocarcinoma, 20 mg/m^2, 1 cycle): Stable CA 19-9, abdominal pain
abdominal pain and opioid treatment ([8]; patient: pancreatic adenocarcinoma, 20 mg/m^2, after one cycle): subsided and cessation of opioid
Stable disease ([8]; patient: prostate (stage III), 5 to 20 mg/m^2, 13 cycles): Stable disease > 35 weeks.
PSA after decline ([8]; patient: prostate (stage III), 5 to 20 mg/m^2, declined from 106 over 12 weeks): PSA declined from 106 to 25 μg/L
Stable disease ([8]; patient: prostate, 20 mg/m^2, 5 cycles): Stable disease > 6 weeks
PSA after decline ([8]; patient: prostate, 20 mg/m^2, 5 cycles, from 262, in 3 weeks after three cycles): 86 μg/L (in 3 weeks) after three
PSA stability ([8]; patient: prostate, 5 cycles, at 5 mg/m^2): Preliminary signs of PSA stability
PSA (FIG. 8) ([8]; prostate cancer patients, multiple doses at 10 mg/m^2, continuing at 20 mg/m^2): declining
rebound after neutropenia at day 14 [4]: virtually no rebound
neutropenia (FIG. 6), day 7 in particular [4]: lesser/no dip in values
tolerability (body weight, FIG. 4) ([5]; 9 and 10 mg/kg): overall well tolerated
antitumour efficacy (mean tumour volume, FIG. 3) ([5]; 9 and 10 mg/kg i.v. days 1, 8 and 15): complete tumour regression
survival ([5]; both doses (9 and 10 mg/kg)): significantly extended survival beyond that of Cabazitaxel
stability in solution (e.g. with regard to precipitation) [9]: increased stability in solution
AUC0-t free Cabazitaxel ([6]; 1 mg/kg drug eq., males): 445.00 ng·h/mL
Cmax free (unconjugated) Cabazitaxel ([6]; 1 mg/kg drug eq., males): 14.13 ng/mL
% JEVTANA ® brand cabazitaxel dose ([6]; 1 mg/kg drug eq., males): 65%
AUC0-t free Cabazitaxel ([6]; 2.5 mg/kg drug eq., males): 1239.99 ng·h/mL
Cmax free (unconjugated) Cabazitaxel ([6]; 2.5 mg/kg drug eq., males): 36.89 ng/mL
% JEVTANA ® brand cabazitaxel dose ([6]; 2.5 mg/kg drug eq., males): 182%
antitumour efficacy (mean tumour volume, FIG. 1) ([10]; 9 mg/kg i.v. Days 1, 8 and 15, to Day 126): complete tumour regression with no regrowth observed in any of the animals on Day 126
tolerability (body weight, FIG. 2) ([10]; male mice, 9 mg/kg i.v. Days 1, 8, 15, 9 mg/kg): overall well tolerated; also recorded: better tolerated than SPL9005
max weight loss ([10]; male mice, 9 mg/kg, on Day 20): −10%

Nc1ccn([C@@H]2O[C@H](CO)[C@@H](O)C2(F)F)c(=O)n1 [Gemcitabine, reference compound]
Tumour Growth inhibition (%) [7]: 40%
anti-tumour efficacy (mean tumour volume, FIG. 7) [7]: Neither Gemcitabine or ABRAXANE® were effective in this model

BHALys[Lys]32[α-TDA-Cabazitaxel]32 †[ε-PEG˜2100]32‡ [SPL9005]
mean weight loss [11]: below 10%
AUC0-t free Cabazitaxel ([6]; 1 mg/kg drug eq., males): 202.94 ng·h/mL
Cmax free (unconjugated) Cabazitaxel ([6]; 1 mg/kg drug eq., males): 4.41 ng/mL
% JEVTANA ® brand cabazitaxel dose ([6]; 1 mg/kg drug eq., males): 30%
AUC0-t free Cabazitaxel ([6]; 2.5 mg/kg drug eq., males): 548.96 ng·h/mL
Cmax free (unconjugated) Cabazitaxel ([6]; 2.5 mg/kg drug eq., males): 9.29 ng/mL
% JEVTANA ® brand cabazitaxel dose ([6]; 2.5 mg/kg drug eq., males): 81%
male mice recovered to +5/10% starting weight ([10]; 25 mg/kg, after day 40): 2/10
male mice with >20% weight loss ([10]; 25 mg/kg, after third dose, approx. day 25): 8/10
